In ChEMBL document CHEMBL4196016, “Regioselective synthesis of 7-O-esters of the flavonolignan silibinin and SARs lead to compounds with overadditive neuroprotective effects” (Eur J Med Chem, 2018):
Calls of active or inactive are those of the source. The rule behind the calls is not given here.

Legend:
[1] = Antioxidant activity assessed as ferric ion reduction by measuring FeSO4 equivalents reducing Fe3+-TPTZ to Fe2+-TPTZ measured every 15 secs for 4 mins by FRAP assay; type: functional
HT-22 [2] = experiment: Neuroprotective activity against glutamate-induced mouse HT22 cells assessed as increase in cell survival at 25 to 50 uM cotreated with glutamate measured after 24 hrs by MTT assay; type: functional, cell-based
[3] = Antioxidant activity assessed as reduction of Fe3+-TPTZ to Fe2+-TPTZ measured every 15 secs for 4 mins by FRAP assay; type: functional
HT-22 [4] = experiment: Neuroprotective activity against glutamate-induced mouse HT22 cells assessed as increase in cell survival at 25 uM cotreated with glutamate measured after 24 hrs by MTT assay; type: functional, cell-based
[5] = target: T1, Microtubule-associated protein tau (Homo sapiens, UniProt P10636); experiment: Inhibition of tau (unknown origin) aggregation expressed in Escherichia coli (DE3) at 10 uM incubated for overnight by Th-S fluorescence staining based UV-Vis spectrophotometer (reference value: 0.0 +/- 1.4%)
T1 sequence (P10636 whole entry): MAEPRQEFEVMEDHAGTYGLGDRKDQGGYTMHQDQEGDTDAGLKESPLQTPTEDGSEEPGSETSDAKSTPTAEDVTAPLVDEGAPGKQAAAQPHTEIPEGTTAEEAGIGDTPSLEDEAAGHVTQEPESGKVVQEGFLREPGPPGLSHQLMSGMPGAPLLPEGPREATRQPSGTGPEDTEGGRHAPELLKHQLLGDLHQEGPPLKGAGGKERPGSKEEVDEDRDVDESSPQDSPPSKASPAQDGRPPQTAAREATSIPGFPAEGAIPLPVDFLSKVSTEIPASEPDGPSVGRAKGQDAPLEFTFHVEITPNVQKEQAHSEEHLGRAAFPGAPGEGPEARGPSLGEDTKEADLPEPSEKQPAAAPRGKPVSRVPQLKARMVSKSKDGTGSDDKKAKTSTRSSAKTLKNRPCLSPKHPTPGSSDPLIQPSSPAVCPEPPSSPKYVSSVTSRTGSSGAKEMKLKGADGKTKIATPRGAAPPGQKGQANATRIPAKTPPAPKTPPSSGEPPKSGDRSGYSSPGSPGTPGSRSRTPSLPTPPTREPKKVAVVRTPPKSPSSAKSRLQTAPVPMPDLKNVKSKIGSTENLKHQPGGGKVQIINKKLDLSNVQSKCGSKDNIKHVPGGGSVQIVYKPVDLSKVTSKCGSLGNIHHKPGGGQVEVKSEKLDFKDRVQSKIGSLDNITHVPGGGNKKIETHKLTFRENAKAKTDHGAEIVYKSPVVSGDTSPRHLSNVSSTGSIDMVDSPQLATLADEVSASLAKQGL

[6] = target: T2, Amyloid-beta precursor protein (Homo sapiens, UniProt P05067); experiment: Inhibition of amyloid beta 42 (unknown origin) expressed in Escherichia coli BL21 (DE3) aggregation at 10 uM incubated for overnight by Th-S fluorescence staining based UV-Vis spectrophotometer (reference value: 0 +/- 1%)
T2 sequence (P05067 whole entry): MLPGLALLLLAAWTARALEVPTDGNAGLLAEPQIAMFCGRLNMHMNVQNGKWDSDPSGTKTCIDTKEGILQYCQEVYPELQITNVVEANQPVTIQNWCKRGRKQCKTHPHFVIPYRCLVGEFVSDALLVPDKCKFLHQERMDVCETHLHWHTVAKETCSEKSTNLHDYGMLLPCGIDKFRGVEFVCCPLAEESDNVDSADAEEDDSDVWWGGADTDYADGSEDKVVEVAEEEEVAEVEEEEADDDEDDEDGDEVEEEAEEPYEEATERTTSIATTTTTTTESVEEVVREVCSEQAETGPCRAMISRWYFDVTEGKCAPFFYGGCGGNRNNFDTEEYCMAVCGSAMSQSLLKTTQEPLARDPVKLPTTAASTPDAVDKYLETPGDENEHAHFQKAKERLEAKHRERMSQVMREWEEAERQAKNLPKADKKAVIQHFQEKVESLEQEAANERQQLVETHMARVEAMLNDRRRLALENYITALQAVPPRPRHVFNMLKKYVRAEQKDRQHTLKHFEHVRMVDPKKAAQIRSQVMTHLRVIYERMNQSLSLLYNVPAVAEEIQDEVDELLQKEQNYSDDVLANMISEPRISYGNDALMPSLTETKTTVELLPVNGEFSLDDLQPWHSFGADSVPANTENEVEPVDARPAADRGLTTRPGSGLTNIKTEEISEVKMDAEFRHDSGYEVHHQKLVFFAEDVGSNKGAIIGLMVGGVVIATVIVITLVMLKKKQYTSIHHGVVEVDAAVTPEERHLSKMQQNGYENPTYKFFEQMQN

BV-2 = experiment: Antiinflammatory activity in mouse BV2 cells assessed as inhibition of LPS-induced microglial activation after 24 hrs by Griess reagent based assay; type: functional, cell-based; settings: BV-2, 24 h
HT-22 [7] = experiment: Neuroprotective activity against IAA-induced ischemia in mouse HT22 cells assessed as increase in cell viability cotreated with IAA for 2 hrs followed by IAA wash out measured after 24 hrs by MTT assay; type: functional, cell-based
[8] = target: T2, Amyloid-beta precursor protein; experiment: Inhibition of amyloid beta 42 (unknown origin) expressed in Escherichia coli BL21 (DE3) aggregation incubated for overnight by Th-S fluorescence staining based UV-Vis spectrophotometer
[9] = target: T1, Microtubule-associated protein tau; experiment: Inhibition of tau (unknown origin) aggregation expressed in Escherichia coli (DE3) incubated for overnight by Th-S fluorescence staining based UV-Vis spectrophotometer
[10] = target: T2, Amyloid-beta precursor protein; experiment: Inhibition of amyloid beta 42 (unknown origin) expressed in Escherichia coli BL21 (DE3) aggregation at 100 uM incubated for overnight by Th-S fluorescence staining based UV-Vis spectrophotometer (reference value: 0 +/- 4.4%)
PC-12 = experiment: Induction of rat PC12 cells differentiation assessed as neurite outgrowth at 10 uM after 24 hrs relative to control; type: functional
HT-22 [11] = experiment: Neurotoxicity against mouse HT22 cells assessed as decrease in cell viability at 10 uM measured after 24 hrs by MTT assay; type: toxicity, cell-based; settings: ht-22, 24 h
[12] = target: T1, Microtubule-associated protein tau; experiment: Inhibition of tau (unknown origin) aggregation expressed in Escherichia coli (DE3) at 100 uM incubated for overnight by Th-S fluorescence staining based UV-Vis spectrophotometer (reference value: 0.0 +/- 2.4%)
HT-22 [13] = experiment: Neuroprotective activity against glutamate-induced mouse HT22 cells assessed as increase in cell survival at 10 uM cotreated with glutamate measured after 24 hrs by MTT assay; type: functional, cell-based
[14] = Stability of the compound in assay medium at 50 uM by LCMS analysis; type: physicochemical; settings: TDE = time-dependent effect
HT-22 [15] = experiment: Neuroprotective activity against glutamate-induced mouse HT22 cells assessed as cell survival at 10 to 25 uM cotreated with glutamate measured after 24 hrs by MTT assay relative to control; type: functional
[16] = Metabolic stability of the compound in human pooled plasma at 50 uM by LCMS analysis; type: ADME, cell-free; settings: TDE = time-dependent effect
HT-22 [17] = experiment: Neurotoxicity against mouse HT22 cells assessed as decrease in cell viability at 25 uM measured after 24 hrs by MTT assay; type: toxicity, cell-based; settings: ht-22, 24 h
[18] = Half life in human pooled plasma at 50 uM up to 24 hrs by LCMS analysis; type: ADME, cell-free
[19] = Stability of the compound in assay medium at 50 uM after 24 hrs by LCMS analysis; type: physicochemical; settings: read-out: Stability
[20] = Drug metabolism in human pooled plasma assessed as 7-Oferuloyl-2,3-dehydrosilibinin formation at 50 uM up to 24 hrs by LCMS analysis; type: ADME, cell-free
[21] = Drug metabolism in human pooled plasma assessed as cleavage of ester bond at 50 uM up to 24 hrs by LCMS analysis; type: ADME, cell-free
[22] = Metabolic stability of the compound in human pooled plasma assessed as compound remaining at 50 uM after 4 hrs by LCMS analysis; type: ADME, cell-free; settings: read-out: Stability
[23] = Antioxidant activity assessed as reduction of Fe3+-TPTZ to Fe2+-TPTZ using 1:1 test compound to silibinin ratio measured every 15 secs for 4 mins by FRAP assay; type: functional
HT-22 [24] = experiment: Neuroprotective activity against glutamate-induced mouse HT22 cells assessed as increase in cell survival at 1 to 25 uM using 1:1 test compound to silibinin ratio cotreated with glutamate measured after 24 hrs by MTT assay; type: functional, cell-based
HT-22 [25] = experiment: Neuroprotective activity against glutamate-induced mouse HT22 cells assessed as increase in cell survival at 1 to 25 uM cotreated with glutamate measured after 24 hrs by MTT assay; type: functional, cell-based
HT-22 [26] = experiment: Neurotoxicity against mouse HT22 cells assessed as decrease in cell viability at 25 uM using 1:1 test compound to silibinin ratio measured after 24 hrs by MTT assay; type: toxicity, cell-based; settings: ht-22, 24 h
HT-22 [27] = experiment: Neuroprotective activity against glutamate-induced mouse HT22 cells assessed as increase in cell survival at 5 to 25 uM cotreated with glutamate measured after 24 hrs by MTT assay; type: functional, cell-based
[28] = Antioxidant activity assessed as reduction of Fe3+-TPTZ to Fe2+-TPTZ using equimolar mixture of test compound and silibinin measured every 15 secs for 4 mins by FRAP assay; type: functional
HT-22 [29] = experiment: Neuroprotective activity against glutamate-induced mouse HT22 cells assessed as cell survival at 25 uM cotreated with glutamate measured after 24 hrs by MTT assay relative to control; type: functional

Row | SMILES | Activity (HT-22 [2]) | Activity [3] | Activity (HT-22 [4]) | EC50 (BV-2) [µM] | EC50 (HT-22 [7]) [µM] | Activity (PC-12) | further results
1 | Cc1c(C)c2c(c(C)c1O)CCC(C)(C(=O)O)O2 (stereo unspecified) |  |  |  |  |  |  | Activity [1]: 1.8 equiv
2 | COc1cc(C2Oc3cc([C@H]4Oc5cc(OC(=O)CCc6ccccc6)cc(O)c5C(=O)[C@@H]4O)ccc3OC2CO)ccc1O (stereo partly specified) | inactive | inactive |  |  |  |  | 
3 | COc1cc(CCC(=O)Oc2cc(O)c3c(c2)O[C@H](c2ccc4c(c2)OC(c2ccc(O)c(OC)c2)C(CO)O4)[C@@H](O)C3=O)ccc1O (stereo partly specified) | inactive | Active |  |  |  |  | 
4 | COc1cc(C(=O)Oc2cc(O)c3c(c2)O[C@H](c2ccc4c(c2)OC(c2ccc(O)c(OC)c2)C(CO)O4)[C@@H](O)C3=O)ccc1O (stereo partly specified) |  | Active | Active |  |  |  | 
5 | COc1cc(/C=C/C(=O)Oc2cc(O)c3c(c2)O[C@H](c2ccc4c(c2)O[C@H](c2ccc(O)c(OC)c2)[C@@H](CO)O4)[C@@H](O)C3=O)ccc1O |  | Active |  | 9.8 | 1.4 | 50% | inhibition [5]: 36.8%; inhibition [6]: 13.2%; IC50 [8]: 85.5 µM; IC50 [9]: 27.2 µM; inhibition [10]: 52.7%; Activity (HT-22 [11]): Toxic; inhibition [12]: 67.2%
6 | COc1cc(C2Oc3cc([C@H]4Oc5cc(OC(=O)/C=C/c6cc(OC)c(O)c(OC)c6)cc(O)c5C(=O)[C@@H]4O)ccc3OC2CO)ccc1O (stereo partly specified) | Active | Active |  |  |  |  | 
7 | COc1cc(C2Oc3cc([C@H]4Oc5cc(O)cc(O)c5C(=O)[C@@H]4O)ccc3OC2COC(=O)/C=C/c2ccccc2)ccc1O (stereo partly specified) |  |  | Active |  |  |  | Activity (HT-22 [13]): inactive
8 | COc1cc(C2Oc3cc([C@H]4Oc5cc(OC(=O)CCc6ccc7c(c6)OC(C)(C)O7)cc(O)c5C(=O)[C@@H]4O)ccc3OC2CO)ccc1O (stereo partly specified) | inactive | inactive |  |  |  |  | 
9 | COc1cc(C2Oc3cc([C@H]4Oc5cc(OC(=O)/C=C/c6ccc7c(c6)OC(C)(C)O7)cc(O)c5C(=O)[C@@H]4O)ccc3OC2CO)ccc1O (stereo partly specified) | Active | inactive | inactive |  |  |  | Activity (HT-22 [13]): Active
10 | COc1cc(/C=C/C(=O)Oc2cc(O)c3c(c2)O[C@H](c2ccc4c(c2)OC(c2ccc(O)c(OC)c2)C(CO)O4)[C@@H](O)C3=O)ccc1O (stereo partly specified) |  | Active |  | 6.5 | > 10 | 47% | inhibition [5]: 30.4%; Stability [14]: Tde; Survival (HT-22 [15]): 50%; inhibition [6]: 16.8%; Stability [16]: Tde; Activity (HT-22 [17]): Toxic; half-life at 50 µM [18]: 1.5 h; remaining at 24 h, 50 µM [19]: 25%; Drug metabolism [20]: Metabolite_Notdetected; inhibition [10]: 54.4%; Drug metabolism [21]: Metabolite_Detected; inhibition [12]: 64.7%; remaining at 4 h, 50 µM [22]: 20%
11 | COc1cc(C2Oc3cc([C@H]4Oc5cc(OC(=O)c6ccccc6)cc(O)c5C(=O)[C@@H]4O)ccc3OC2CO)ccc1O (stereo partly specified) |  | inactive | inactive |  |  |  | 
12 | O=C1O[C@H]([C@@H](O)CO)C(O)=C1O |  |  |  |  |  |  | Activity [1]: 2 equiv
13 | COc1cc(/C=C/C(=O)Oc2cc(O)c3c(c2)O[C@H](c2ccc4c(c2)O[C@@H](c2ccc(O)c(OC)c2)[C@H](CO)O4)[C@@H](O)C3=O)ccc1O |  | Active |  | 10.1 | 2.2 | 67% | inhibition [5]: 44.5%; inhibition [6]: 14.2%; IC50 [8]: 43.6 µM; IC50 [9]: 12.9 µM; Activity (HT-22 [13]): Active; inhibition [10]: 73%; Activity (HT-22 [11]): Toxic; inhibition [12]: 84%
14 | COc1cc(/C=C/C(=O)O)ccc1O [FERULATE] |  | Active |  | > 10 | > 10 | inactive | Activity [23]: Active; Activity (HT-22 [24]): inactive; Activity (HT-22 [25]): inactive; Activity (HT-22 [17]): Non-Toxic; Activity (HT-22 [26]): Toxic
15 | COc1cc(C2Oc3cc([C@H]4Oc5cc(OC(=O)/C=C/c6ccccc6)cc(O)c5C(=O)[C@@H]4O)ccc3OC2CO)ccc1O (stereo partly specified) | Active | inactive | inactive | 4.2 | 1.5 | 40% | inhibition [5]: 37.1%; Activity (HT-22 [27]): Active; inhibition [6]: 17.1%; Activity (HT-22 [17]): Non-Toxic; Activity (HT-22 [13]): Active; inhibition [10]: 61.1%; inhibition [12]: 76.1%
16 | COc1cc(C2Oc3cc([C@H]4Oc5cc(OC(=O)CCc6cc(OC)c(O)c(OC)c6)cc(O)c5C(=O)[C@@H]4O)ccc3OC2CO)ccc1O (stereo partly specified) | inactive | Active |  |  |  |  | 
17 | O=C(O)/C=C/c1ccccc1 [CINNAMIC ACID] |  | inactive |  | > 10 | > 10 | inactive | Activity [28]: Active; Activity (HT-22 [26]): Toxic
18 | O=c1c(O)c(-c2ccc(O)c(O)c2)oc2cc(O)cc(O)c12 [QUERCETIN] |  |  |  |  |  |  | Survival (HT-22 [29]): 80%
19 | COc1cc(C2Oc3cc([C@H]4Oc5cc(OC(=O)c6cc(OC)c(O)c(OC)c6)cc(O)c5C(=O)[C@@H]4O)ccc3OC2CO)ccc1O (stereo partly specified) |  | Active | Active |  |  |  | 
20 | COc1cc(C2Oc3cc([C@H]4Oc5cc(OC(=O)c6ccc7c(c6)OC(C)(C)O7)cc(O)c5C(=O)[C@@H]4O)ccc3OC2CO)ccc1O (stereo partly specified) |  | inactive | inactive |  |  |  | Activity (HT-22 [13]): Active
